Laboratory results: US8927462B2, “Method for identifying HLA complexes associated with adverse drug reactions” (Academia Sinica, priority 2010, dated 2015)

Key:
[1] = system: peptides bound to the soluble HLA-B*1502-β2-microglobulin complex; assay: Analysis of HLA-B-bound drug-modified peptides by liquid chromatography-tandem mass spectrometry (C1R-HLA-B*1502 clone treated with CBZ); parameters: species or system human; conditions: C1R-HLA-B*1502 culture, 50 μg/mL for 48 hours; LC-tandem MS of <3-kDa fraction
autologous B-LCL cells = assay: 51Cr-release cytotoxicity assay, CBZ-specific CD8+ T cells against drug-pulsed autologous B-LCL; type: cell-based, human; conditions: B-LCL pulsed with 25 μg/ml drug overnight at 37° C. and washed out before the cytotoxicity assay; FIG. 3
Procedure: (§1) PBMC were isolated by the density-gradient Ficoll-Paque method according to the manufacturer's instructions (GE Healthcare Company, Piscataway, N.J., USA). […] After 3˜4 times of restimulation, CD8^+ T cells were sorted out for further functional assays. T cells were cultured with RPMI-HS medium consisted of RPMI 1640 supplemented with 10% heat-inactivated human type AB serum (Labquid Inc, Ontario, Calif.) and 50 U/ml IL-2 (R&D Systems, Minneapolis, Minn., USA). EBV-transformed B-cell lines (B-LCL) were generated by transforming the donor's PBMCs with supernatant from the EBV-producing cell lines B9-85.
Irradiated APCs (10^3) and T cells (10^4) were incubated with a test compound for 48 hours, and the proliferation of T cells was measured by incorporation of [^3H] thymidine. For fixation assay, autologous B-LCLs were pretreated with 0.05% paraformaldehyde for 30 s. For pulsing experiments, drugs were preincubated with B-LCLs overnight. […]
B-LCLs, preincubated with IFN-γ (R&D Systems, Minneapolis, Minn., USA) overnight, were first incubated with ^51Cr (Perkin Elmer, Waltham, Mass., USA) for 1 hr at 37° C. […] Radioactivity in the supernatant from each wells was measured by a Topcount (Packard Biosciences, Meriden, Conn., USA). The percentage of specific lysis was calculated as follows: (^51Cr release in the test well−spontaneous ^51Cr release)/(maximum ^51Cr release−spontaneous ^51Cr release).

[2] = system: CBZ-specific CD8+ T cells; assay: [3H] thymidine incorporation assay, T cell proliferation with fixed and non-fixed B-LCLs; type: cell-based, human; conditions: fixed and unfixed autologous B-LCL; FIG. 4
Procedure: as §1
Irradiated APCs (10^3) and T cells (10^4) were incubated with a test compound for 48 hours, and the proliferation of T cells was measured by incorporation of [^3H] thymidine. For fixation assay, autologous B-LCLs were pretreated with 0.05% paraformaldehyde for 30 s. For pulsing experiments, drugs were preincubated with B-LCLs overnight. B-LCLs were washed repeatedly to remove noncovalently bound drug, and then incubated with T cells.

HLA-B*1501 = target: T1, HLA-B*1501 (Homo sapiens, UniProt P01889, A329T/A93T/A95T/C349S/D201E/D98Y/E187L/E204Q/E69M/E70A/K202T/N87E/Q94N/R155S/R180W/S121R/S35A/S48A/V306I/V36M/Y140S/Y91S); assay: Surface plasmon resonance (SPR) binding to soluble HLA-B*1501; conditions: for binding to other HLA-B molecules (SPR): HLA-B*1501: at therapeutic concentrations
T1 construct: Complexes containing soluble HLA-B*1501 or 1503 and β2-microglobulin were prepared following the same procedure described above; made in house

HLA-B*1503 = HLA-B*1503 (Homo sapiens, UniProt P01889, A329T/A93T/A95T/C349S/D201E/D98Y/E187L/E204Q/K202T/N87E/Q94N/R155S/R180L/S121R/S35A/V306I/V36M/Y140S/Y91S); assay: Surface plasmon resonance (SPR) binding to soluble HLA-B*1503; conditions: for binding to other HLA-B molecules (SPR): HLA-B*1503: at therapeutic concentrations
HLA-B*4001 = HLA-B*4001 (Homo sapiens, UniProt P01889, A65T/A93T/A95T/D138N/D98Y/E176V/E69K/N87E/Q56L/Q94N/R180L/S121R/S35A/S48T/T167S/V36M/W171L/Y33H/Y91S); assay: Surface plasmon resonance (SPR) binding to soluble HLA-B*4001; conditions: for binding to other HLA-B molecules (SPR): HLA-B*4001: at therapeutic concentrations
HLA-B*5101 = HLA-B*5101 (Homo sapiens, UniProt P01889, A329T/A93T/A95T/C349S/D138N/D201E/D98Y/E187L/E204Q/E69T/G107R/I218V/K202T/L105A/L119W/N104I/Q94N/R106L/R155S/R180L/S101N/S121T/S35A/S48A/V306I/V36M/Y195H/Y91F); assay: Surface plasmon resonance (SPR) binding to soluble HLA-B*5101; conditions: for binding to other HLA-B molecules (SPR): HLA-B*5101: at therapeutic concentrations

SMILES | covalent binding of drug to HLA-B*1502-bound peptides [1] | response (specific lysis) of CBZ-specific CD8+ T cells to pulsed autologous B-LCL (autologous B-LCL cells) | presentation by B-LCL and activation (proliferation) of CBZ-specific CD8+ T cells [2] | binding to HLA-B*1501 (SPR) (HLA-B*1501; FIG. 6) | binding to HLA-B*1503 (SPR) (HLA-B*1503; FIG. 6) | binding to HLA-B*4001 (SPR) (HLA-B*4001; FIG. 6) | binding to HLA-B*5101 (SPR) (HLA-B*5101; FIG. 6) | binding to other HLA-B molecules (SPR): HLA-B*1501 (HLA-B*1501) | binding to other HLA-B molecules (SPR): HLA-B*1503 (HLA-B*1503) | binding to other HLA-B molecules (SPR): HLA-B*4001 (HLA-B*4001) | binding to other HLA-B molecules (SPR): HLA-B*5101 (HLA-B*5101)
NC(=O)N1c2ccccc2C=Cc2ccccc21 [CBZ, carbamazepine] | does not covalently bind to peptides | none of the CBZ-specific CD8^+ T cells responded | able to be presented by both fixed and unfixed autologous B-LCL and activated | neither CBZ nor its seven analogs (see the Compounds section above) binds | neither CBZ nor its seven analogs (see the Compounds section above) binds | did not bind | did not bind | – | – | – | –
NCC1(CC(=O)O)CCCCC1 [GAB, gabapentin] | – | – | negative results | – | – | – | – | did not bind | did not bind | did not bind | did not bind
CC[C@@H](C(N)=O)N1CCCC1=O [LEV, levetiracetam] | – | – | – | – | – | – | – | did not bind | did not bind | did not bind | did not bind
CC1(C)O[C@@H]2[C@@H](CO[C@@]3(COS(N)(=O)=O)OC(C)(C)O[C@@H]23)O1 [TOP, topiramate] | – | – | – | – | – | – | – | did not bind | did not bind | did not bind | did not bind
